Results on one compound are retold here after publication PMC8296708, “The pan HDAC inhibitor Givinostat improves muscle function and histological parameters in two Duchenne muscular dystrophy murine models expressing different haplotypes of the LTBP4 gene” (Skeletal Muscle, 2021).

Test [1] deals with murine models of diastolic dysfunction. Details: method as in PMID 29437146. The following applies: drug admixed to the diet; cited from earlier work.
The test system of test [2] is mdx mice. Nature of the test: Centralized nuclei (%) in muscles of mdx mice. It is filed as in vivo, mouse (C57BL/10ScSn-Dmd^mdx/J). The following applies: T16. From the text:
(§1) Tibialis anterior (TA), gastrocnemius (GAS), DIA, and heart were collected from mice maintained under isoflurane anesthesia and sacrificed by cervical dislocation. These muscles were collected from C57BL/10J wt and mdx (5 mice/group) at the end of treatments and from DBA/2J wt and D2.B10 mice (5 mice/group) at two different time points to be examined by a pathologist (for more details see Additional Table 1). Due to the results obtained by the functional tests, muscles from only some treatment groups were analyzed in both DMD models (see Additional Table 1). All the collected muscles were fixed in 10% buffered formalin solution (Bio-optica, Milan, Italy) at + 4 °C for at least 48 h. After fixation, muscular samples were transversely trimmed, caged, and paraffin embedded overnight with an Automated Vacuum Tissue Processor Floor (ETP, Histo-Line Laboratories) and included in paraffin blocks. Serial transverse cross-sections (4 μm thick) were cut with a microtome (Leica RM 2255), collected onto uncoated glass slides, and stained using a standard protocol for hematoxylin and eosin (Mayer hematoxylin & Aqueous G Eosin 1%, Bio-Optica) and Sirius Red staining (Direct Red 80, Sigma-Aldrich). For the image analysis and quantitation, hematoxylin and eosin- and Sirius Red-stained slides were examined with an Olympus BX51 light microscope. From each sample, 1 to 3 random microphotographs at the magnification of × 4 and × 10 (TA, GAS and heart) or × 20 (DIA) were collected using Image-Pro Plus system. The digital images were processed by a pathologist using ImageJ software (U.S. National Institutes of Health, Bethesda, MD, USA). To quantify CSA and centralized nuclei (%) on hematoxylin and eosin-stained sections, one hundred myofibers were manually measured for each muscle/mouse using a tablet pen (Wacom Intruos) and analyzed by the ImageJ software after a linear calibration of 150 μm. The fibrotic area, corresponding to the area stained in red, was compared to the total area of the tissue section, and the results were expressed as percentage fibrosis. The % of fibrosis of muscles in the different treatment groups was expressed by averaging the three values obtained from each muscle.

The nature of a further test: Body weight of mdx mice. The class given is in vivo, mouse (C57BL/10ScSn-Dmd^mdx/J). The procedure:
In the efficacy studies, Givinostat powder (ITF2357) was suspended in 0.5% methylcellulose (Sigma-Aldrich) and administered p.o. (by gavage) at the doses of 0.1, 0.3, 1, 5, 10, 25, and 37.5 mg/kg qdx5x15weeks (administration volume per mouse: 10 mL/kg) in mdx mice (see Additional Figure 1A). Vehicle-treated mdx mice received 0.5% methylcellulose suspension. Givinostat suspension was stored at + 4 °C, and it was freshly prepared every 7 days. Probably due to the impairment of their tongue and masticatory muscles, the oral gavage procedure turned out to be difficult to perform, and chronic treatment of D2.B10 mice by this route was considered to bear a high risk of damaging the esophagus. For this reason, Givinostat was administered in the drinking water. […] Water consumption was weekly monitored throughout the entire duration of the study weighing the bottle of each cage (maximum 4 mice per cage). […] All mice were monitored daily and tolerability was evaluated on the basis of BW and clinical signs.
In both efficacy studies, the effectiveness of treatments was evaluated every week by measuring the forelimb strength by a grip strength meter (Ugo Basile SRL, Italy). BW of mdx (see Additional Figure 2) and D2.B10 mice (see Additional Figure 3) was also measured in order to normalize the absolute grip strength of each mouse with respect to its BW. […]

The next test has as its system D2.B10 mice. Nature of the test: Histopathological evaluation of severity of myodystrophy in D2.B10 mice. It is filed as in vivo, mouse (D2.B10-Dmd^mdx/J). The following applies: T8 and T16. How it is done: (§2) In these experiments, the histopathological evaluation of muscle inflammatory infiltrate, adipose tissue deposition, regeneration, and degeneration of the muscular tissue was also performed. The severity of myodystrophy in the different muscles (TA, GAS and DIA) was quantified through a weighted histopathological method that considered some parameters scored by severity and extension of the injury: muscle degeneration/necrosis, regeneration, inflammatory infiltrate, interstitial reaction, and adipose tissue deposition. Each parameter was classified by severity (mild = 1, moderate = 2, and severe = 3) and extension (focal = 1, multifocal = 2, and diffuse = 3). The individual severity score was calculated for each animal and an average score per group was calculated.

In test [3] the test system is mdx mice. Nature of the test: Histopathological evaluation of severity of myodystrophy in mdx mice. The class given is in vivo, mouse (C57BL/10ScSn-Dmd^mdx/J). The conditions noted are these: T16. The procedure:
as §2

For test [4], the system named is mdx mice. Nature of the test: Muscle fibrosis by Sirius Red staining in mdx mice. The class given is in vivo, mouse (C57BL/10ScSn-Dmd^mdx/J).
From the text: as §1

Consider `CCN(CC)Cc1ccc2cc(COC(=O)Nc3ccc(C(=O)NO)cc3)ccc2c1` [Givinostat], for which the “Efficacy in two murine models of diastolic dysfunction with preserved ejection fraction” value in test [1] is recorded as “highly efficacious”. For the same compound, the “Nuclear centralization in DIA” value is listed as 57 ± 2.9% in the test on mdx mice [2] (1 mg/kg), 61.4 ± 3.5% in the test on mdx mice [2] (10 mg/kg) and 41.4 ± 4.5% in the test on mdx mice [2] (37.5 mg/kg). Moreover, the “Nuclear centralization in GAS” value in the test on mdx mice [2] (1 mg/kg) is given as 67.6 ± 2.4%; in the test on mdx mice [2] (10 mg/kg), 58 ± 3%; in the test with mdx mice [2] (37.5 mg/kg) it was 61.3 ± 3.8%. Besides, the “Nuclear centralization in TA” value in the test on mdx mice [2] (1 mg/kg) was determined as 71 ± 1.6%; with mdx mice [2] (10 mg/kg) it was 73.2 ± 3.7%; in the test on mdx mice [2] (37.5 mg/kg), 60.8 ± 2.5%. In addition, the Body weight in “Body weight of mdx mice” (25 mg/kg, day 105 (vehicle 37.2 ± 0.8, p < 0.01)) is given as 32.9 ± 0.9 g; in “Body weight of mdx mice” (37.5 mg/kg, day 105 (vehicle 37.2 ± 0.8, p < 0.05)) it was 33.1 ± 0.9 g. In addition, the “Histological evaluation of inflammatory infiltrate, adipose tissue deposition, regeneration, degeneration” value with D2.B10 mice and with mdx mice [3] was “not significantly different among the treatment groups” in each case. The “Reduction of fibrosis in GAS” value in the test with mdx mice [4] (10 and 37.5 mg/kg, T16, vs vehicle) is listed as “about 30%”. Besides, in the test on mdx mice [4] (T16, doses 1, 10, 37.5 mg/kg analyzed), the “Effect on fibrosis in TA” value is “observed only at the dose of 37.5 mg/kg”. The “Reduction of fibrosis in DIA” value in the test on mdx mice [4] (all 3 analyzed doses (1, 10, 37.5 mg/kg), T16) is reported as “about 40%”. In addition, the “Effect on fibrosis in heart” value in the test on mdx mice [4] (all 3 doses analyzed, T16, vs vehicle) was “the effect was not significant”.
